Laboratory results reported in patent publication US12662451B2, “Chemical compounds and uses thereof” (GLAXOSMITHKLINE INTELLECTUAL PROPERTY (NO.4) LIMITED, priority 2023, dated 2026).
Where a name gives a salt, the structure may show the parent alone.

Tests used:
[1] = target: T1, recombinant full-length WRN protein (1-1432) (Homo sapiens, UniProt Q14191); assay: WRN unwinding activity, fluorogenic 384-well assay (Example A); format: biochemical; details: WRN unwinding activity, 4 hr; Table 2; read-out: 4 hr UNW pIC50 (converted)
T1 construct: recombinant full-length WRN protein (1-1432)
In short: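 Read-out is end-point unwinding of a fluorophore/quencher duplex (ex 525, em 598 nm) after 60 min with 200 μM ATP and 12 nM DNA (2× stocks), EDTA stop. Compound first sat 4 h with 200 pM WRN (2× stock) in pH 8.0 Tris buffer; four-parameter fit gives pIC50.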

[2] = test system: SW48 human colorectal cancer cells (MSI-H cancer cells); assay: SW48 cell viability, CellTiter-Glo, 120 hours (Example B); details: Homo sapiens, SW48, 120 h, read-out: SW48 pCC50, SW48 cell viability, 120 hours incubation (converted); Table 2

T1 sequence (Q14191 whole entry): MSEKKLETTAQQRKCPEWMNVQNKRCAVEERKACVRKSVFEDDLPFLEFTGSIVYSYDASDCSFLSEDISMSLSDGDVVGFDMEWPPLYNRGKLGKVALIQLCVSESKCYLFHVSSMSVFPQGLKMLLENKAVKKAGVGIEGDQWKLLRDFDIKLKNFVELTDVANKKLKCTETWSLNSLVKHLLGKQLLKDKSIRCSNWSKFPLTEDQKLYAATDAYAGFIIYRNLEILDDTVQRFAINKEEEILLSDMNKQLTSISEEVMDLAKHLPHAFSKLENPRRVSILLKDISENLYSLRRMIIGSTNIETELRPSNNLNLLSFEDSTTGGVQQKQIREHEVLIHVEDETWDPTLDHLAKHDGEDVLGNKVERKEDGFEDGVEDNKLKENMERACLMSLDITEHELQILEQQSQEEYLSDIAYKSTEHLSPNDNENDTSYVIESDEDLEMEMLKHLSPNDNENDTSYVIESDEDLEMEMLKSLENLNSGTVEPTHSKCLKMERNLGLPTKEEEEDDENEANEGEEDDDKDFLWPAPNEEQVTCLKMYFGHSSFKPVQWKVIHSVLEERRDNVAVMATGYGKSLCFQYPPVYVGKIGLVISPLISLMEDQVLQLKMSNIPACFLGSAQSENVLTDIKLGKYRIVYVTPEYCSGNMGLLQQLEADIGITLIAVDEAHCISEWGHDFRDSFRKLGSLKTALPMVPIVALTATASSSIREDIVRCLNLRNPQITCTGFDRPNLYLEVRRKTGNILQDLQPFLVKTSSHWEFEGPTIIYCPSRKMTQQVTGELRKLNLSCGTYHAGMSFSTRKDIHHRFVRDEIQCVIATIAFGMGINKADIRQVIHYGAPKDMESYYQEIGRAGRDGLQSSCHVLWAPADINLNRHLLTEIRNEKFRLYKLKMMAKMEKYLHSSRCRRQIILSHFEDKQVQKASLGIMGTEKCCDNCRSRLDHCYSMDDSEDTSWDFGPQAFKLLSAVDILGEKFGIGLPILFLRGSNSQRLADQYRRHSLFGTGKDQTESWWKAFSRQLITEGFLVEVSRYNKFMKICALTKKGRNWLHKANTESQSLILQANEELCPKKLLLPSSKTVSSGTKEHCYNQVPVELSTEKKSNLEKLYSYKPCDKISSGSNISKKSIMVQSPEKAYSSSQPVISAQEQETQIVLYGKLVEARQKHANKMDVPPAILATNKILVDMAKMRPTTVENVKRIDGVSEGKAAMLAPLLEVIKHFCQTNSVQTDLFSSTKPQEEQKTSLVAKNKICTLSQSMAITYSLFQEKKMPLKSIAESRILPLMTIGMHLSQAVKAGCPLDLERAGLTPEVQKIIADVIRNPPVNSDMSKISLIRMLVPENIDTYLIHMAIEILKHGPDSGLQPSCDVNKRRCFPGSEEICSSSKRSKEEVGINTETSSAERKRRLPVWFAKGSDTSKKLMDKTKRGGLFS

SMILES | IC50 [1] [nM] | CC50 [2] [nM]
CN(c1ccc([C@H]2CCC[C@@H](C(=O)Nc3ccc(C(F)(F)F)cc3F)[C@@H]2C(=O)O)cc1)S(=O)(=O)c1cccc(C2OCCO2)c1 [Example 118, (1R,2S,6R)-2-(4-((3-(1,3-dioxolan-2-yl)-N-methylphenyl)sulfonamido)phenyl)-6-((2-fluoro-4-(trifluoromethyl)phenyl)carbamoyl)cyclohexane-1-carboxylic acid] | 2 | 1260
Cc1nc2ccc(S(=O)(=O)N(C)c3ccc([C@H]4CCC[C@@H](C(=O)Nc5ccc(C(F)(F)F)cc5F)[C@@H]4C(=O)O)cc3)cc2n1C [Example 131, (1R,2R,6S)-2-((2-fluoro-4-(trifluoromethyl)phenyl)carbamoyl)-6-(4-((N,1,2-trimethyl-1H-benzo[d]imidazole)-6-sulfonamido)phenyl)cyclohexane-1-carboxylic acid] | 6.31 | 3980
CN(c1ccc([C@H]2CCC[C@@H](C(=O)Nc3ccc(C(F)(F)F)cc3F)[C@@H]2C(=O)O)cc1)S(=O)(=O)c1ccc(S(N)(=O)=O)cc1 [Example 133, (1R,2R,6S)-2-((2-fluoro-4-(trifluoromethyl)phenyl)carbamoyl)-6-(4-((N-methyl-4-sulfamoylphenyl)sulfonamido)phenyl)cyclohexane-1-carboxylic acid] | 3.98 | 12600
CN(c1ccc([C@H]2CCC[C@@H](C(=O)Nc3ccc(C(F)(F)F)cc3F)[C@@H]2C(=O)O)cc1)S(=O)(=O)c1cccc(S(N)(=O)=O)c1 [Example 134, (1R,2R,6S)-2-((2-fluoro-4-(trifluoromethyl)phenyl)carbamoyl)-6-(4-((N-methyl-3-sulfamoylphenyl)sulfonamido)phenyl)cyclohexane-1-carboxylic acid] | 7.94 | 12600
C=CS(=O)(=O)N(C)c1ccc([C@H]2CCC[C@@H](C(=O)Nc3ccc(C(F)(F)F)cc3F)[C@@H]2C(=O)O)cc1 [Example 135, (1R,2R,6S)-2-((2-fluoro-4-(trifluoromethyl)phenyl)carbamoyl)-6-(4-(N-methylvinylsulfonamido)phenyl)cyclohexane-1-carboxylic acid] | 2.51 | 2510
COc1cc(S(=O)(=O)N(C)c2ccc([C@H]3CCC[C@@H](C(=O)Nc4ccc(C(F)(F)F)cc4F)[C@@H]3C(=O)O)cc2)ccc1Br [Example 136, (1R,2S,6R)-2-(4-((4-bromo-3-methoxy-N-methylphenyl)sulfonamido)phenyl)-6-((2-fluoro-4-(trifluoromethyl)phenyl)carbamoyl)cyclohexane-1-carboxylic acid] | 39.8 | 3160
Cc1nc2cc(S(=O)(=O)N(C)c3ccc([C@H]4CCC[C@@H](C(=O)Nc5ccc(C(F)(F)F)cc5F)[C@@H]4C(=O)O)cc3Br)ccc2n1C [Example 166, (1R,2S,6R)-2-(3-bromo-4-((N,1,2-trimethyl-1H-benzo[d]imidazole)-5-sulfonamido)phenyl)-6-((2-fluoro-4-(trifluoromethyl)phenyl)carbamoyl)cyclohexane-1-carboxylic acid] | 7.94 | 2510
Cc1nc2cc(S(=O)(=O)N(C)c3ccc([C@H]4CCC[C@@H](C(=O)Nc5ccc(C(F)(F)F)cc5F)[C@@H]4C(=O)O)cc3C#CC(C)(C)O)ccc2n1C [Example 167, (1R,2R,6S)-2-((2-fluoro-4-(trifluoromethyl)phenyl)carbamoyl)-6-(3-(3-hydroxy-3-methylbut-1-yn-1-yl)-4-((N,1,2-trimethyl-1H-benzo[d]imidazole)-5-sulfonamido)phenyl)cyclohexane-1-carboxylic acid] | 5.01 | 20000
Cc1nc2cc(S(=O)(=O)N(C)c3ccc([C@H]4CCC[C@@H](C(=O)NC56CC(CC(F)(F)F)(C5)C6)[C@@H]4C(=O)O)cc3)ccc2n1C [Example 174, (1R,2R,6S)-2-((3-(2,2,2-trifluoroethyl)bicyclo[1.1.1]pentan-1-yl)carbamoyl)-6-(4-((N,1,2-trimethyl-1H-benzo[d]imidazole)-5-sulfonamido)phenyl)cyclohexane-1-carboxylic acid] | 20 | 10000
Cc1nc2cc(S(=O)(=O)N(C)c3ccc([C@H]4CCC[C@@H](C(=O)Nc5ccc(C6CCC6)cc5F)[C@@H]4C(=O)O)cc3)ccc2n1C [Example 175, (1R,2R,6S)-2-((4-cyclobutyl-2-fluorophenyl)carbamoyl)-6-(4-((N,1,2-trimethyl-1H-benzo[d]imidazole)-5-sulfonamido)phenyl) cyclohexane-1-carboxylic acid] | 3.16 | 1580
CC[C@H]1CC[C@H](NC(=O)[C@@H]2CCC[C@H](c3ccc(N(C)S(=O)(=O)c4ccc5c(c4)nc(C)n5C)cc3)[C@H]2C(=O)O)CC1 [Example 176, (1R,2R,6S)-2-(((1r,4R)-4-ethylcyclohexyl)carbamoyl)-6-(4-((N, 1,2-trimethyl-1H-benzo[d]imidazole)-5-sulfonamido)phenyl)cyclohexane-1-carboxylic acid] | 1.26 | 1260
Cc1nc2cc(S(=O)(=O)N(C)c3ccc([C@H]4CCC[C@@H](C(=O)N[C@H]5CC[C@H](C(C)(C)F)CC5)[C@@H]4C(=O)O)cc3)ccc2n1C [Example 182, (1R,2R,6S)-2-(((1r,4R)-4-(2-fluoropropan-2-yl)cyclohexyl)carbamoyl)-6-(4-((N, 1,2-trimethyl-1H-benzo[d]imidazole)-5-sulfonamido)phenyl)cyclohexane-1-carboxylic acid] | 2.51 | 1580
Cc1nc2cc(S(=O)(=O)N(C)c3ccc([C@H]4CCC[C@@H](C(=O)NC56CC(C7CCCC7)(C5)C6)[C@@H]4C(=O)O)cc3)ccc2n1C [Example 187, (1R,2R,6S)-2-((3-cyclopentylbicyclo[1.1.1]pentan-1-yl)carbamoyl)-6-(4-((N,1,2-trimethyl-1H-benzo[d]imidazole)-5-sulfonamido)phenyl)cyclohexane-1-carboxylic acid, formic acid salt] | 6.31 | 3980
Cc1nc2cc(S(=O)(=O)N(C)c3ccc([C@H]4CCC[C@@H](C(=O)N[C@H]5CC[C@H](C6CCC6)CC5)[C@@H]4C(=O)O)cc3)ccc2n1C [Example 188, (1R,2R,6S)-2-(((1r,4R)-4-cyclobutylcyclohexyl)carbamoyl)-6-(4-((N,1,2-trimethyl-1H-benzo[d]imidazole)-5-sulfonamido)phenyl)cyclohexane-1-carboxylic acid] | 2.51 | 2510
CCC[C@H]1CC[C@H](NC(=O)[C@@H]2CCC[C@H](c3ccc(N(C)S(=O)(=O)c4ccc5c(c4)nc(C)n5C)cc3)[C@H]2C(=O)O)CC1 [Example 190, (1R,2R,6S)-2-(((1s,4R)-4-propylcyclohexyl)carbamoyl)-6-(4-((N,1,2-trimethyl-1H-benzo[d]imidazole)-5-sulfonamido)phenyl)cyclohexane-1-carboxylic acid] | 1.58 | 3980
Cc1nc2cc(S(=O)(=O)N(C)c3ccc([C@H]4CCC[C@@H](CO[C@H]5CC[C@H](C(F)(F)F)CC5)[C@@H]4C(=O)O)cc3)ccc2n1C [Example 215, (1R,2R,6S)-2-((((1r,4R)-4-(trifluoromethyl)cyclohexyl)oxy)methyl)-6-(4-((N,1,2-trimethyl-1H-benzo[d]imidazole)-5-sulfonamido)phenyl)cyclohexane-1-carboxylic acid] | 79.4 | 20000
Cc1nc2cc(S(=O)(=O)N(C)c3ccc([C@H]4CCC[C@@H](COc5ccc(C(F)(F)F)cc5)[C@@H]4C(=O)O)cc3)ccc2n1CCN [Example 216, (1R,2S,6R)-2-(4-((1-(2-aminoethyl)-N,2-dimethyl-1H-benzo[d]imidazole)-5-sulfonamido)phenyl)-6-((4-(trifluoromethyl)phenoxy)methyl)cyclohexane-1-carboxylic acid, 0.41 formic acid salt] | 5.01 | 12600
CCN(c1ccc([C@H]2CCC[C@@H](C(=O)Nc3ccc(C(F)(F)F)cc3F)[C@@H]2C(=O)O)cc1)S(=O)(=O)c1ccc2c(c1)nc(C)n2C [Example 233] | 12.6 | 5010
Cc1nc2cc(S(=O)(=O)N(c3ccc([C@H]4CCC[C@@H](C(=O)Nc5ccc(C(F)(F)F)cc5F)[C@@H]4C(=O)O)cc3)C3CC3)ccc2n1C [Example 238, (1R,2S,6R)-2-(4-((N-cyclopropyl-1,2-dimethyl-1H-benzo[d]imidazole)-5-sulfonamido)phenyl)-6-((2-fluoro-4-(trifluoromethyl)phenyl)carbamoyl)cyclohexane-1-carboxylic acid] | 3.98 | 2000
CN(c1ccc([C@H]2CCC[C@@H](C(=O)Nc3ccc(C(F)(F)F)cc3F)[C@@H]2C(=O)O)cc1)S(=O)(=O)c1ccc(O)c(C=O)c1 [Example 248] | 3.16 | 3980
CN(c1ccc([C@H]2CCC[C@@H](C(=O)Nc3ccc(C(F)(F)F)cc3F)[C@@H]2C(=O)O)cc1)S(=O)(=O)c1ccc2c(c1)CNCC2 [Example 260, (1R,2R,6S)-2-((2-fluoro-4-(trifluoromethyl)phenyl)carbamoyl)-6-(4-((N-methyl-1,2,3,4-tetrahydroisoquinoline)-7-sulfonamido)phenyl)cyclohexane-1-carboxylic acid hydrochloride] | 2 | 1580
CN(c1ccc([C@H]2CCC[C@@H](C(=O)Nc3ccc(C(F)(F)F)cc3F)[C@@H]2C(=O)O)cc1)S(=O)(=O)c1ccc(Br)c(O)c1 [Example 274, (1R,2S,6R)-2-(4-((4-bromo-3-hydroxy-N-methylphenyl)sulfonamido)phenyl)-6-((2-fluoro-4-(trifluoromethyl)phenyl)carbamoyl)cyclohexane-1-carboxylic acid] | 15.8 | 15800
